Data: patent US9702824B2, “pH sensors” (PROMEGA CORPORATION, priority 2012, dated 2017)
Like-named read-outs stand apart in the source and are kept apart here. One block for each compound: values may come before it.

Key:
[1] = test system: U2-OS cells stably expressing HaloTag-NLS; experiment: pH sensor permeability, pulse and chase with HaloTag Oregon Green (Example 12); settings: 2 uM pulse for 10 minutes
[2] = test system: U2-OS cells stably expressing HaloTag-NLS
[3] = Fluorescence excitation and emission spectra of pH sensor agents; type: physicochemical
Protocol: (§1) Experiments were conducted during development of embodiments of the present invention to determine the fluorescence characteristics of exemplary pH sensor agents PBI-4453 and PBI-4479 (SEE FIG. 1). Fluorescence excitation and emission intensities were measured at a range of wavelengths (SEE FIG. 2). […] Fluorescence detection was performed at a range of pH values (SEE FIG. 3).

[4] = pH dependence of fluorescence emission; type: physicochemical
Protocol: as §1

[5] = test system: U2OS cells; experiment: Toxicity, CELLTITER-GLO Luminescent Cell Viability Assay (Example 3); type: cell-based; settings: 0 nM to 20 uM, 24 hour
Protocol: The toxicity of dyes PBI-4479 and PBI-4453 was tested in U2OS cells. The cells were plated at 20,000 cells/well in McCoy's 5A media+10% FBS into wells of a 96-well plate. The compounds were then serially diluted 2-fold in McCoy's 5A+10% FBS to a 10× working solution. 10 ul of the working solution was added to the cells to a final concentration of 0 nM to 20 uM. The treated cells were then incubated overnight at 37° C., 5% CO2. Toxicity was tested using Promega's CELLTITER-GLO Luminescent Cell Viability Assay according to the manufacturer's protocol. No toxicity was seen across varying concentrations of the compounds over the 24 hour period (SEE FIG. 9).

[6] = test system: wild-type U2-OS cells; experiment: Toxicity of HaloTag pH sensors, CELLTITER Glo Cell Viability Assay (Example 9); type: cell-based; settings: 0-10 uM, overnight
Protocol: U2-OS cells were plated at 10,000 cells/well into wells of 96-well plates and incubated overnight. The next day, 0-10 uM (serially diluted 1:2) PBI-4959, PBI-5004 or PBI-4479 was added to the cells and again incubated overnight. After incubation, the media containing the HaloTag® pH sensors was removed, and 100 ul of fresh media (McCoy's 5A+10% FBS) was added. Cell viability was determined using the CELLTITER Glo Cell Viability Assay according to the manufacturer's protocol (Promega Corporation). Luminescence was read on a GloMAX®-Multi luminometer.

[7] = molecular target: T1, U2-OS HaloTag-EDG1 cells (Homo sapiens, UniProt P21453); experiment: Detection of internalization using a permeable pH sensor (Example 13); type: cell-based; settings: 500 nM sensor added after stimulation with or without 1 uM S1P
T1 construct: host or cells: U2-OS HaloTag-EDG1 cells
T1 sequence (P21453 with tags, fused parts or gaps): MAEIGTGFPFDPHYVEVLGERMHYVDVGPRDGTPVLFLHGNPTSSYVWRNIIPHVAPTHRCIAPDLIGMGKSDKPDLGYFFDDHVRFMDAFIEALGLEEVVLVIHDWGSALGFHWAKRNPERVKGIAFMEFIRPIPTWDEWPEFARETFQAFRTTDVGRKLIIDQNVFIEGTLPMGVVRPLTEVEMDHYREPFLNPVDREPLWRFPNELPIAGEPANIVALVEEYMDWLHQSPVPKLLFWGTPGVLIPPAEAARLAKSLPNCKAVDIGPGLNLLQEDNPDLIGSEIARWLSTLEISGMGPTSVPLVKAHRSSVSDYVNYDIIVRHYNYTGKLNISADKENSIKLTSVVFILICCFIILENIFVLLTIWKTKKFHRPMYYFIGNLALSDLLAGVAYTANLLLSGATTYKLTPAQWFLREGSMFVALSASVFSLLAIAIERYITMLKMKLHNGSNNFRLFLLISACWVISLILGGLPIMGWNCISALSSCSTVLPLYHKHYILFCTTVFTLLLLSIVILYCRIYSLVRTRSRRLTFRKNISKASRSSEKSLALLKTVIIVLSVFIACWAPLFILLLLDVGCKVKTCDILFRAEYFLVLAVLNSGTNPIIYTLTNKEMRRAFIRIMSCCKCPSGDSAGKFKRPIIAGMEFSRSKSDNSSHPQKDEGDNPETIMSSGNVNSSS
Protocol: To evaluate internalization using a permeable pH Sensor, U2-OS HaloTag®-EDG1 cells (Promega Corporation) were exposed to PBI-5004 and internalization of HaloTag®-EDG1 assessed. […] The next day, the media was replaced with McCoy's 5A+0.5% cFBS and incubated overnight at 37° C./5% CO2. After incubation, 1 uM S1P (Sphingosine-1-Phosphate) was added, and the cells incubated for 30 minutes at 37° C./5% CO2.

[8] = Ex/Em printed with the synthesis procedures; type: physicochemical
[9] = molecular target: T1, U2-OS HaloTag-EDG1 cells; experiment: Detection of internalization using an impermeable pH sensor (Example 13); type: cell-based; settings: 500 nM sensor
Protocol: The next day, the media was replaced with McCoy's 5A+0.5% cFBS and incubated overnight at 37° C./5% CO2. […] 1 uM S1P (Sphingosine-1-Phosphate) or carrier (DMSO) was then added to the cells, and images were acquired sequentially on Olympus FV500 at 37° C./5% CO2.

[10] = test system: HaloTag-EDG1 fusion protein in U2-OS cells; experiment: Blocking internalization by DYNASORE, detected with pH sensor; type: cell-based; settings: 80 uM, 1 uM S1P for 60 minutes, detected with 1 uM PBI-4479
Protocol: In addition to dynamin, DYNASORE, a reversible, non-competitive inhibitor of dynamin, can also be used to block internalization/endocytosis with the blocking detected and monitored using the pH sensor of the present invention. […] After the overnight incubation, the cells were simultaneously labeled for 30 minutes with 1 uM HaloTag pH sensor (PBI-4479) and 80 uM Dynasore (Sigma). Control cells were labeled with the 1 uM HaloTag pH sensor, but were not treated with Dynasore. The cells were then stimulated with 1 uM S1P for 60 minutes and imaged as previously described.

[11] = test system: HaloTag-EDG1 fusion protein in U2-OS cells; experiment: Restoration of internalization by DYNASORE washout; type: cell-based; settings: 80 uM removed by washing, then 1 uM S1P for 60 minutes
Protocol: In such experiments, blocked internalization of HaloTag-EDG1 was restored. […] After the overnight incubation, the cells were simultaneously labeled with a HaloTag pH sensor (PBI-4479) and 80 uM DYNASORE (Sigma). Control cells were labeled with the HaloTag pH sensor, but were not treated with DYNASORE. The cells were then stimulated with 1 uM S1P and imaged (T=0 in FIG. 17). At this point, DYNASORE prevents the dynamin-dependent internalization/endocytosis of HaloTag-EDG1. DYNASORE was then removed by washing three times for 5 minutes with McCoy's 5A+10% FBS, and the media replaced with complete media containing 1 uM S1P. The cells were incubated for 60 minutes and imaged as previously described. Internalization of HaloTag-EDG1 was restored as detected and monitored by the pH sensor (SEE FIG. 19).

cell permeability [1]: non-permeability
Compound: O=C(NCCOCCOCCCCCCCl)c1cccc(CNC(=O)c2ccc(C(=O)[O-])c(-c3c4ccc(=[N+]5CCN(CCCCS(=O)(=O)O)CC5)cc-4oc4cc(N5CCN(CCCCS(=O)(=O)O)CC5)ccc34)c2)c1 [PBI-4958]

cell permeability [2]: non-permeability
Compound: 4-((1-(4-((2-(2-((6-chlorohexyl)oxy)ethoxy)ethyl)carbamoyl)phenyl)-3-oxo-6,9,12,15-tetraoxa-2-azaheptadecan-17-yl)) 3′,6′-bis(4-(4-sulfobutyl)piperazin-1-yl) rhodamine(5′,6′)carboxamide [PBI-4995]

emission maximum [3]: 571 nm
excitation maximum [3]: 541 nm
pH at or below which maximal fluorescence intensity is exhibited [4]: ≤ 4.15
percent of maximal fluorescence ([4]; at pH 7.53 or higher): ≤ 5%
pKa ([4]; from pH dependence of fluorescence): ~5.84
Compound: CN1CCN(c2ccc3c(-c4cc(C(=O)NCCOCCOCCOCCOCCOCCOCCCCCCCl)ccc4C(=O)[O-])c4ccc(=[N+]5CCN(C)CC5)cc-4oc3c2)CC1 [PBI-4453, N-(24-chloro-3,6,9,12,15,18-hexaoxatetracosyl)-3′,6′-bis(4-methylpiperazin-1-yl)-rhodamine-(5,6)carboxamide]
toxicity (cell viability) [5]: No toxicity

cell permeability [1]: non-permeability
Compound: O=C(CCOCCOCCOCCOCCNC(=O)c1ccc(C(=O)[O-])c(-c2c3ccc(=[N+]4CCN(CCCCS(=O)(=O)O)CC4)cc-3oc3cc(N4CCN(CCCCS(=O)(=O)O)CC4)ccc23)c1)NCc1cccc(C(=O)NCCOCCOCCCCCCCl)c1 [PBI-4994]

Em [8]: 560 nm
Ex [8]: 532 nm
Compound: O=C(NCC1CCC(C(=O)NCCOCCOCCCCCCCl)CC1)c1ccc(C(=O)[O-])c(-c2c3ccc(=[N+]4CCN(CCCCS(=O)(=O)O)CC4)cc-3oc3cc(N4CCN(CCCCS(=O)(=O)O)CC4)ccc23)c1 (centres unmarked) [PBI-5004, 4-(((4-((2-(2-((6-chlorohexyl)oxy)ethoxy)ethyl)carbamoyl)cyclohexyl)methyl)) 3′,6′-bis(4-(4-sulfobutyl)piperazin-1-yl) rhodamine(5′,6′) carboxamide]
toxicity (cell viability) [6]: non-toxicity
detection of HaloTag-EDG1 internalization [7]: ability to detect internalization of HaloTag-EDG1

Em [8]: 564 nm
Ex [8]: 532 nm
cell permeability [1]: non-permeability
Compound: O=C(NCCOCCOCCCCCCCl)c1ccc(CNC(=O)c2ccc(C(=O)[O-])c(-c3c4ccc(=[N+]5CCN(CCCCS(=O)(=O)O)CC5)cc-4oc4cc(N5CCN(CCCCS(=O)(=O)O)CC5)ccc34)c2)cc1 [PBI-4959, 4-((4-((2-(2-((6-chlorohexyl)oxy)ethoxy)ethyl)carbamoyl)benzyl))-3′,6′-bis(4-(4-sulfobutyl)piperazin-1-yl) rhodamine(5′,6′) carboxamide]
toxicity (cell viability) [6]: non-toxicity
detection of HaloTag-EDG1 internalization ([9]; with 1 uM S1P): ability to detect internalization of HaloTag-EDG1
detection of background HaloTag-EDG1 internalization ([9]; without 1 uM S1P): ability to detect background internalization of HaloTag-EDG1

Compound: O=C(N/N=C/c1ccc(O)c(O)c1)c1cc2ccccc2cc1O [DYNASORE]
effect on HaloTag-EDG1 internalization [10]: prevented dynamin-dependent internalization/endocytosis
HaloTag-EDG1 internalization after washout [11]: restored

Em [8]: 586 nm
Ex [8]: 559 nm
Compound: CN1CCN(c2ccc3c(c2)Oc2c4c5c(cc2=C3c2cc(C(=O)O)ccc2C(=O)[O-])CCC[N+]=5CCC4)CC1 [Hexahydroquinoiizino-(4-methylpiperazin-1-yl}-rhodamine-6′-carboxyic acid]
